Test results from PubChem BioAssay (NCI).
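Assay format: 96-well plates, 48-hour exposure. At the GI50, growth is halved. TGI is the concentration that stops growth completely.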

Legend:
Assay in all cases: NCI tumour cell line growth inhibition, 48 h; in the data active = GI50 below about 0.43 µM; inactive = the rest
LOX IMVI melanoma = test system: LOX IMVI melanoma
RXF 393 renal = test system: RXF 393 renal
SNB-19 CNS = test system: SNB-19 CNS
MCF7 breast = test system: MCF7 breast
HCT-116 colon = test system: HCT-116 colon
NCI-H460 lung = test system: NCI-H460 lung
HT29 colon = test system: HT29 colon
KM12 colon = test system: KM12 colon
SN12C renal = test system: SN12C renal
OVCAR-4 ovarian = test system: OVCAR-4 ovarian
HL-60(TB) leukemia = test system: HL-60(TB) leukemia
NCI-H226 lung = test system: NCI-H226 lung
T-47D breast = test system: T-47D breast
CCRF-CEM leukemia = test system: CCRF-CEM leukemia
DU-145 prostate = test system: DU-145 prostate
BT-549 breast = test system: BT-549 breast
NCI-H23 lung = test system: NCI-H23 lung
SNB-75 CNS = test system: SNB-75 CNS
K-562 leukemia = test system: K-562 leukemia
A549 NSCLC = test system: A549 NSCLC
SF-539 CNS = test system: SF-539 CNS
U251 CNS = test system: U251 CNS
SF-295 CNS = test system: SF-295 CNS
HCT-15 colon = test system: HCT-15 colon
IGROV1 ovarian = test system: IGROV1 ovarian
OVCAR-8 ovarian = test system: OVCAR-8 ovarian
HOP-62 NSCLC = test system: HOP-62 NSCLC
SK-OV-3 ovarian = test system: SK-OV-3 ovarian
A498 renal = test system: A498 renal
TK-10 renal = test system: TK-10 renal
MDA-MB-435 = test system: MDA-MB-435
MDA-MB-231 breast = test system: MDA-MB-231 breast
CAKI-1 renal = test system: CAKI-1 renal
HOP-92 NSCLC = test system: HOP-92 NSCLC
SK-MEL-5 melanoma = test system: SK-MEL-5 melanoma
NCI-H522 lung = test system: NCI-H522 lung
PC-3 prostate = test system: PC-3 prostate
SK-MEL-2 melanoma = test system: SK-MEL-2 melanoma
NCI/ADR-RES ovarian = test system: NCI/ADR-RES ovarian
RPMI-8226 leukemia = test system: RPMI-8226 leukemia
UACC-62 melanoma = test system: UACC-62 melanoma
SK-MEL-28 melanoma = test system: SK-MEL-28 melanoma
OVCAR-3 ovarian = test system: OVCAR-3 ovarian
M14 melanoma = test system: M14 melanoma
OVCAR-5 ovarian = test system: OVCAR-5 ovarian
786-0 renal = test system: 786-0 renal
SW-620 colon = test system: SW-620 colon
HCC-2998 colon = test system: HCC-2998 colon
UACC-257 melanoma = test system: UACC-257 melanoma
COLO 205 colon = test system: COLO 205 colon
EKVX NSCLC = test system: EKVX NSCLC
SR leukemia = test system: SR leukemia
ACHN renal = test system: ACHN renal
MOLT-4 leukemia = test system: MOLT-4 leukemia
SF-268 CNS = test system: SF-268 CNS
UO-31 renal = test system: UO-31 renal
HS 578T breast = test system: HS 578T breast

N#CC(C#N)=C1/C(=C/C=C/C=C/C=C/c2ccc(N3CCCCC3)s2)S(=O)(=O)c2ccccc21
> 100 µM: TGI (LOX IMVI melanoma) | TGI (RXF 393 renal) | TGI (SNB-19 CNS) | TGI (MCF7 breast) | TGI (HCT-116 colon) | TGI (NCI-H460 lung) | TGI (HT29 colon) | TGI (KM12 colon) | TGI (SN12C renal) | TGI (OVCAR-4 ovarian) | TGI (HL-60(TB) leukemia) | TGI (NCI-H226 lung) | TGI (T-47D breast) | TGI (CCRF-CEM leukemia) | TGI (DU-145 prostate) | TGI (BT-549 breast) | TGI (NCI-H23 lung) | TGI (SNB-75 CNS) | TGI (K-562 leukemia) | TGI (A549 NSCLC) | TGI (SF-539 CNS) | TGI (U251 CNS) | TGI (SF-295 CNS) | TGI (HCT-15 colon) | TGI (IGROV1 ovarian) | TGI (OVCAR-8 ovarian) | TGI (HOP-62 NSCLC) | TGI (SK-OV-3 ovarian) | TGI (A498 renal) | TGI (TK-10 renal) | TGI (MDA-MB-435) | TGI (MDA-MB-231 breast) | TGI (CAKI-1 renal) | TGI (HOP-92 NSCLC) | TGI (SK-MEL-5 melanoma) | TGI (NCI-H522 lung) | TGI (PC-3 prostate) | TGI (SK-MEL-2 melanoma) | TGI (NCI/ADR-RES ovarian) | TGI (RPMI-8226 leukemia) | TGI (UACC-62 melanoma) | TGI (SK-MEL-28 melanoma) | TGI (OVCAR-3 ovarian) | TGI (M14 melanoma) | TGI (OVCAR-5 ovarian) | TGI (786-0 renal) | TGI (SW-620 colon) | TGI (HCC-2998 colon) | TGI (UACC-257 melanoma) | TGI (COLO 205 colon) | TGI (EKVX NSCLC) | TGI (SR leukemia) | TGI (ACHN renal)
63 µM: TGI (MOLT-4 leukemia)

NC(=O)c1cc(Cl)ccc1NC(=O)COc1ccccc1
70.7 µM: TGI (HL-60(TB) leukemia)
9.27 µM: TGI (A498 renal)
14.4 µM: TGI (COLO 205 colon)
2.22 µM: TGI (MDA-MB-435)
> 100 µM: TGI (LOX IMVI melanoma) | TGI (SNB-19 CNS) | TGI (SF-268 CNS) | TGI (MCF7 breast) | TGI (HCT-116 colon) | TGI (NCI-H460 lung) | TGI (HT29 colon) | TGI (KM12 colon) | TGI (SN12C renal) | TGI (OVCAR-4 ovarian) | TGI (NCI-H226 lung) | TGI (T-47D breast) | TGI (CCRF-CEM leukemia) | TGI (DU-145 prostate) | TGI (NCI-H23 lung) | TGI (K-562 leukemia) | TGI (A549 NSCLC) | TGI (U251 CNS) | TGI (HCT-15 colon) | TGI (IGROV1 ovarian) | TGI (OVCAR-8 ovarian) | TGI (HOP-62 NSCLC) | TGI (SK-OV-3 ovarian) | TGI (TK-10 renal) | TGI (MDA-MB-231 breast) | TGI (CAKI-1 renal) | TGI (HOP-92 NSCLC) | TGI (SK-MEL-5 melanoma) | TGI (NCI-H522 lung) | TGI (PC-3 prostate) | TGI (SK-MEL-2 melanoma) | TGI (RPMI-8226 leukemia) | TGI (UACC-62 melanoma) | TGI (SK-MEL-28 melanoma) | TGI (UO-31 renal) | TGI (M14 melanoma) | TGI (OVCAR-5 ovarian) | TGI (786-0 renal) | TGI (SW-620 colon) | TGI (HCC-2998 colon) | TGI (UACC-257 melanoma) | TGI (SR leukemia) | TGI (ACHN renal) | TGI (HS 578T breast) | TGI (MOLT-4 leukemia)
active: GI50 (MDA-MB-435) 0.356 µM
41.6 µM: TGI (SF-295 CNS)
23 µM: TGI (SNB-75 CNS)
inactive: GI50 (LOX IMVI melanoma) 8.33 µM | GI50 (RXF 393 renal) 3.93 µM | GI50 (SNB-19 CNS) 11.7 µM | GI50 (SF-268 CNS) 9.89 µM | GI50 (MCF7 breast) 1.81 µM | GI50 (HCT-116 colon) 2.72 µM | GI50 (NCI-H460 lung) 3 µM | GI50 (HT29 colon) 1.74 µM | GI50 (KM12 colon) 2.13 µM | GI50 (SN12C renal) 17 µM | GI50 (OVCAR-4 ovarian) > 100 µM | GI50 (HL-60(TB) leukemia) 3.29 µM | GI50 (NCI-H226 lung) > 100 µM | GI50 (T-47D breast) 6.88 µM | GI50 (CCRF-CEM leukemia) 3.07 µM | GI50 (DU-145 prostate) 6.01 µM | GI50 (NCI-H23 lung) 5.9 µM | GI50 (SNB-75 CNS) 1.81 µM | GI50 (K-562 leukemia) 0.854 µM | GI50 (A549 NSCLC) 7.06 µM | GI50 (SF-539 CNS) 1.8 µM | GI50 (U251 CNS) 2.34 µM | GI50 (SF-295 CNS) 1.96 µM | GI50 (HCT-15 colon) 1.57 µM | GI50 (IGROV1 ovarian) 5.6 µM | GI50 (OVCAR-8 ovarian) 7.06 µM | GI50 (HOP-62 NSCLC) 5.88 µM | GI50 (SK-OV-3 ovarian) 8.15 µM | GI50 (A498 renal) 1.41 µM | GI50 (TK-10 renal) 63.8 µM | GI50 (MDA-MB-231 breast) 9.02 µM | GI50 (CAKI-1 renal) 4.18 µM | GI50 (HOP-92 NSCLC) 5.7 µM | GI50 (SK-MEL-5 melanoma) 7.45 µM | GI50 (NCI-H522 lung) 3.78 µM | GI50 (PC-3 prostate) 3.22 µM | GI50 (SK-MEL-2 melanoma) 5.08 µM | GI50 (NCI/ADR-RES ovarian) 1.43 µM | GI50 (RPMI-8226 leukemia) 4.33 µM | GI50 (UACC-62 melanoma) 5.42 µM | GI50 (SK-MEL-28 melanoma) 6.25 µM | GI50 (UO-31 renal) 17.9 µM | GI50 (OVCAR-3 ovarian) 2.3 µM | GI50 (M14 melanoma) 2.21 µM | GI50 (OVCAR-5 ovarian) 3.86 µM | GI50 (786-0 renal) 9.54 µM | GI50 (SW-620 colon) 2.58 µM | GI50 (HCC-2998 colon) 12.1 µM | GI50 (UACC-257 melanoma) > 100 µM | GI50 (COLO 205 colon) 2.51 µM | GI50 (SR leukemia) 0.777 µM | GI50 (ACHN renal) 10.7 µM | GI50 (HS 578T breast) 4.65 µM | GI50 (MOLT-4 leukemia) 8.14 µM
20.9 µM: TGI (NCI/ADR-RES ovarian)
39.4 µM: TGI (RXF 393 renal)
5.2 µM: TGI (SF-539 CNS)
10 µM: TGI (OVCAR-3 ovarian)
